Data from patent publication US10975087B2, “Solid forms of tetrahydropyranyl amino-pyrrolopyrimidinone compounds” (ArQule, Inc., priority 2018, dated 2021).

Columns and labels:
Assay type in all cases: physicochemical
[1] = Aqueous solubility; details: water, thermodynamic from solid, solvent addition method
[2] = Dynamic vapor sorption (DVS); details: for Post-DVS XRPD analysis (form): after exposure to elevated humidity; for moisture uptake by DVS: at 90% RH
Protocol: Approximately 10-20 mg of sample was placed into a mesh vapor sorption balance pan and loaded into a DVS-1 dynamic vapor sorption balance by Surface Measurement Systems. […] After completion of the sorption cycle, the sample was dried using the same procedure to 0% RH and then a second sorption cycle back to 40% RH. Two cycles were performed. The weight change during the sorption/desorption cycles were plotted, allowing for the hygroscopic nature of the sample to be determined. XRPD analysis may be then carried out on any solid retained.

[3] = Acetone solubility; details: organic solvent or mixture, thermodynamic from solid, partial dissolution, solvent addition method
[4] = Gravimetric vapor sorption (GVS)
Protocol: Approximately 10-20 mg of sample was placed into a mesh vapor sorption balance pan and loaded into an IGASorp Moisture Sorption Analyzer balance by Hiden Analytical. The sample was subjected to a ramping profile from 40-90% relative humidity (RH) at 10% increments, maintaining the sample at each step until a stable weight had been achieved (98% step completion). After completion of the sorption cycle, the sample was dried using the same procedure to 0% RH, and finally taken back to the starting point of 40% RH. Two cycles were performed. The weight change during the sorption/desorption cycles were plotted, allowing for the hygroscopic nature of the sample to be determined.

[5] = Acetone solubility; details: form of residual solid; amorphous input: Form 2 residual solid with additional peaks
Protocol: Aqueous and acetone solubility was carried out using 3-10 mg of material, depending on availability, and slurrying in 150-200 μL of acetone or 300 μL of deionized water. The samples were agitated at ambient temperature then filtered by centrifugation (0.22 μm nylon filter) after ca. 24 hours and the solids analyzed by XRPD as damp solids. The filtrates were analyzed by HPLC for concentration determination. The water solubility was too low for detection using the current analytical method.

[6] = Form conversion under ambient or vacuum drying conditions
[7] = 7 day stability testing, open vials at 40° C./75% RH, ambient and 80° C.; details: 40° C./75% RH, 80° C., and ambient temperature, 1 week
[8] = Accelerated storage conditions (75% RH/40° C. for 72 hours), XRPD
[9] = Thermodynamic solubility pH measurements; details: respective buffer, 25° C., 48 hours
Protocol: After 2 hours at 25° C., the pH of each slurry was measured and the pH was adjusted, where required. After 24 hours at 25° C., the pH of each slurry was measured and the pH was adjusted, where required. After 48 hours at 25° C., the slurries were separated by centrifugation. The solids were analyzed by XRPD, while the pH of the separated liquors were also measured.

[10] = Salt disproportionation studies (slurry in deionized water); details: 48 hours
Protocol: Samples of salts described herein were prepared for disproportionation studies. Approximately 15 mg of the salt material was suspended in 4 mL of deionized water at ambient temperature (ca. 22° C.). The slurry of the salt was shaken at ambient temperature and analyzed after: 1 h, 24 h, and 48 h. Each sample was filtered using a centrifuge filter. The solid was analyzed by XRPD. pH measurements were performed for the solution (three pH measurements were carried out for each sample and the average pH was calculated).

[11] = Hydration studies in water/acetone mixtures; details: for Hydration study result (solid by XRPD): 5 days
Protocol: Hydration experiments were performed at 25° C. and 50° C. in water/acetone mixtures with the following water content (volume %): 2%, 5%, and 20%. The samples were prepared by adding 250 μL of the water/acetone mixture to 15 mg of the salt sample. The samples were stirred at 25° C. or at 50° C. After 2 days, the samples were inspected for the presence of solid. If solid was not observed, additional salt material was added to the dissolved samples. Samples were stirred for an additional 3 days. After 5 days, samples were filtered and the solid obtained was analyzed by XRPD.

[12] = Karl Fischer coulometric titration (KF) water content
Protocol: Approximately 10-30 mg of solid material was accurately weighed into a vial. The solid was then manually introduced into the titration cell of a Mettler Toledo C30 Compact Titrator. The vial was back-weighed after the addition of the solid and the weight of the added solid entered on the instrument. Titration was initiated once the sample had fully dissolved in the cell. The water content was calculated automatically by the instrument as a percentage and the data printed.

## O=C(c1ccc(Oc2ccccc2)cc1Cl)c1c[nH]c2ncnc(N[C@@H]3CC[C@@H](CO)OC3)c12 [amorphous Compound A, (2-chloro-4-phenoxyphenyl)(4-(((3R,6S)-6-(hydroxymethyl)tetrahydro-2H-pyran-3-yl)amino)-7H-pyrrolo[2,3-d]pyrimidin-5-yl)methanone]
[1]
  Solubility: < 10 mg/mL
[2]
  hygroscopic nature by DVS: hygroscopic
  Post-DVS XRPD analysis (form): remain amorphous
  moisture uptake by DVS: 3.9%
[3]
  Solubility: ≥ 16 mg/mL
[4]; cell wraps: Remained | unchanged
  XRPD post GVS: Remained
[4]; summary Table 11
  GVS (hygroscopicity): 3.9% uptake
[5]
  Acetone solubility: residual solid: (Form 2 residual

## O=C(c1ccc(Oc2ccccc2)cc1Cl)c1c[nH]c2ncnc(N[C@@H]3CC[C@@H](CO)OC3)c12.O=S(=O)(O)c1cccc2c(S(=O)(=O)O)cccc12 [1,5-naphthalene disulfonic acid Form 2]
[6]
  form conversion under vacuum drying conditions: converts 1,5-naphthalene disulfonic acid Form 4

## O=C(O)C(=O)O.O=C(c1ccc(Oc2ccccc2)cc1Cl)c1c[nH]c2ncnc(N[C@@H]3CC[C@@H](CO)OC3)c12 [oxalate Form 1]
[6]
  form conversion under vacuum drying conditions: converts to oxalate Form 5

## Cl.O=C(c1ccc(Oc2ccccc2)cc1Cl)c1c[nH]c2ncnc(N[C@@H]3CC[C@@H](CO)OC3)c12 [hydrochloride Form 1]
[6]; ambient conditions
  form conversion under ambient conditions: gradually converts to hydrochloride Form 2

## O=C(c1ccc(Oc2ccccc2)cc1Cl)c1c[nH]c2ncnc(N[C@@H]3CC[C@@H](CO)OC3)c12.O=P(O)(O)O [phosphate Form 1]
[7]
  XRPD analysis after storage for 1 week: no change in form from the input material
[8]
  stability under accelerated storage conditions (XRPD): stable
[2]
  Post-DVS XRPD analysis (form): no change in form from the input material
  moisture uptake by DVS: ca. 3.2%
[9]
  XRPD after thermodynamic solubility studies: no change from the input material
[10]
  XRPD after salt disproportionation study, 48 hours: no change from the input material
[11]; 2% and 5% water in acetone, 25° C.
  solid obtained in hydration study (XRPD): recovered
[11]; 2% water in acetone, 50° C.
  solid obtained in hydration study (XRPD): potentially new form
[11]; 2% water in water/acetone, 25° C., Form = form of the same salt
  Hydration study result (solid by XRPD): Form 1
[11]; 2% water in water/acetone, 50° C., Form = form of the same salt
  Hydration study result (solid by XRPD): Form 1
[11]; 5% water in water/acetone, 25° C., Form = form of the same salt
  Hydration study result (solid by XRPD): Form 1
[11]; 5% water in water/acetone, 50° C., Form = form of the same salt
  Hydration study result (solid by XRPD): Form 6
[11]; 20% water in water/acetone, 25° C.
  Hydration study result (solid by XRPD): Gum
[11]; 20% water in water/acetone, 50° C.
  Hydration study result (solid by XRPD): Gum
[11]; the other experiments (remaining water contents/temperatures)
  solid obtained in hydration study: gum
[12]
  KF moisture (water) content: 3.74%
